# From patent US20220409510A1, “Polypeptides And Methods For Improving Skin Conditions” (Interk Peptide Therapeutics Limited, priority 2018, published 2022)
# Assays:
# [1] = test system: apoptotic cells in human skin explants; assay: Apoptotic sunburn cells in human skin explants after UV-irradiation; assay type: cell-based; settings: 500 μM
# Procedure: FIGS. 14 and 15 illustrate the effect of the polypeptide IK34720 (SEQ ID NO: 3) on the number of apoptotic cells in human skin explants.
# Skin explants were cultured irradiated and treated as described above for CPD, and subsequent to treatment were stained and quantified as described for Example 6.
# dermal fibroblasts = assay: TBARS lipid peroxidation assay in UV irradiated dermal fibroblasts; assay type: cell-based; settings: highest concentration (5 μM) of peptide; FIG. 19
# Procedure: The ability of the polypeptide RSKAKNPLYRRRRRRRRR to alter UV-induced oxidative damage of cell-derived lipids was examined using the TBARS thiobarbituric acid-reactive substances (TBARS) lipid peroxidation assay.
# After irradiation or sham-irradiation of dermal fibroblasts, supernatants (900 μL) were collected. In brief, 90 μL of butylated hydroxytoluene (2% w/w in ethanol) was added and samples kept frozen (−20° C.) until the TBARS assay. Petri dishes were washed twice with 1 mL of HBSS, cells scraped in 600 μL of water and 60 μL of 0.5% aqueous Triton X100 added to this solution, for protein determination carried out by the Lowry method (Lowry OH et al, J. Biol. Chem., 1951, 193:265-275). TBARS were fluorometrically assayed as described (Morlière P et al, Biochim. Biophys. Acta, 1991, 1084:261-268). Briefly, thawing samples were heated in the presence of thiobarbituric acid in acidic conditions, and TBARS extracted with 1-butanol and fluorometrically quantified (λexc=515 nm and λem=550 nm). Tetraethoxypropane, which quantitatively yields the malondialdehyde-thiobarbituric acid adduct in the assay conditions, was used for calibration. TBARS values, expressed in malondialdehyde (MDA) equivalents, were normalized to the cell protein for each Petri dish. Each TBARS determination was performed in triplicate (e.g., with three Petri dishes per data point).
# [2] = test system: CPD formation in the skin; assay: CPD formation in the skin of mice after acute UV-irradiation; assay type: in vivo, Skh:hr1 hairless mice; settings: topical immediately after UVR, doses as Example 4; 3 hours post-UVR; vs vehicle
# Procedure: Female Skh:hr1 hairless mice were exposed to solar simulated UV-irradiation as described above at Example 4. Immediately after irradiation mice were treated topically on the dorsal surface also as described in Example 4. Subsequently, skin was fixed at 3 hours post-UVR, and subjected to immuno-histochemical staining using the antibody directed against thymine dimers (CPD) described above at 10 μg/ml. […] In FIG. 9, dark staining in nuclei indicates the presence of thymine dimers (CPD), and the % area stained is presented. Immunohistology was quantified as per Example 4.
# [3] = biological target: T1, Human rheumatoid synovial fibroblast MMP-1 (Homo sapiens, UniProt P03956); assay: MMP-1 activity in vitro (fluorogenic substrate); assay type: biochemical; settings: 5, 10, 800 and 1000 μM; 8 nM activated enzyme; pH 7.2; FIG. 16
# T1 construct: endogenous in cells; host or cells: human rheumatoid synovial fibroblasts (native proenzyme isolated from these cells)
# T1 sequence (P03956 100-469): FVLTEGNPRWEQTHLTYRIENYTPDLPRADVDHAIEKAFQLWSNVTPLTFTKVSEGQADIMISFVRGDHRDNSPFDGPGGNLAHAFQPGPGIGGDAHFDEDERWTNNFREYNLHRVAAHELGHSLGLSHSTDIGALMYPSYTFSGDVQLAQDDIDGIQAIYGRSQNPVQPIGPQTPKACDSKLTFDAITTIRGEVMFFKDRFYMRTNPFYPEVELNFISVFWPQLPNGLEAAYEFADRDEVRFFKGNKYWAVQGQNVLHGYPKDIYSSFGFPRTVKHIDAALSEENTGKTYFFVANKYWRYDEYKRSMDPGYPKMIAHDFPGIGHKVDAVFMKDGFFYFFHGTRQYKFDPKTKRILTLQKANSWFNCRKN
# Procedure: The effect of the polypeptide IK34720 (SEQ ID NO: 3) on MMP-1 activity was evaluated using the following protocol.
# Human rheumatoid synovial fibroblast MMP-1 proenzyme, activated with APMA for 60 minutes at 37° C., was used as an active enzyme. The polypeptide IK34720 (SEQ ID NO: 3) at a concentration of 5 μM. 10 μM 800 μM and 1000 μM was pre-incubated with 8 nM activated enzyme in modified MOPS buffer pH 7.2 for 60 minutes at 37° C. The reaction was initiated by addition of […] Mca-Pro-Leu-Gly-Leu-Dap-Ala-Arg followed by a 2 hour incubation period. Determination of the amount of Mca-Pro-Leu-Gly formed was read spectrofluorimetrically at 340 nm/400 nm.
# [4] = test system: MM1418-C1 lightly pigmented melanoma cells; assay: Melanin content of melanoma cells after UVB radiation; assay type: cell-based; settings: 10 μM for 24 hours prior to 2 kJ/m2 UVB; measured 24 hours later; vs untreated UVB cells; FIG. 20
# Procedure: The ability of the polypeptide RSKAKNPLYRRRRRRRRR to alter melanin production was examined.
# In brief, MM1418-C1 lightly pigmented melanoma cells were grown in 24 well culture plates and treated with 10 μM RSKAKNPLYRRRRRRRRR (“IK-3”) for 24 hours prior to being exposed to 2 kJ/m2 UVB radiation. Controls (not treated with RSKAKNPLYRRRRRRRRR) labelled “Con” and “UVB”, respectively, were exposed to either 0 or 2 kJ/m2 UVB radiation. Cell groups were returned to the incubator for 24 hours and then the levels of melanin and protein in the cells were measured spectrophotometrically. In each experiment triplicate samples were measured. Data shown in FIG. 19 indicate the average values±SEM (μg melanin/mg cell protein) exposed to 0 or 2 kJ/m2 UVB which had been pre-treated with 0 or 10 μM of RSKAKNPLYRRRRRRRRR 24 hours prior to being exposed to UVB radiation. The t-test (2-tailed) was used to determine statistical significance, *p<0.05, ***p<0.001.
sequence,measurement,setting,value
"RSKAKNPLYRRRRRRRRR [IK34720, 18-residue polypeptide: … with a C-terminal polyarginine region of 8 arginines]",number of apoptotic cells,"[1]; 3 hrs post UV-irradiation, FIG. 14",statistically significantly reduces the number of apoptotic cells
same,number of apoptotic cells,"[1]; 24 hrs post UV-irradiation, FIG. 15",statistically significantly reduces the number of apoptotic cells
same,significant difference in TRS (TBA reactive substances) between Sham and UV irradiation,dermal fibroblasts,not seen
same,CPD formation in the skin (CPD nuclei),[2],inhibits CPD formation
same,MMP-1 activity,[3],inhibits MMP-1 activation in a dose dependent manner
same,melanin content of cells,[4],significantly decreased melanin content
